# In patent US20210205322A1, “RICTOR-TARGETED THERAPY IN THE MANAGEMENT OF BRAIN METASTASES” (Albert Einstein College of Medicine, priority 2020, published 2021):
# Entries after “also recorded” stand apart in the source; their conditions may differ.
# Experiments:
# lung cancer cell [1] = test: SDF-1α-induced invasion and migration (CXCR4 pathway); format: cell-based
# Experimental: (§1) In vitro Cell Migration and Invasion Assay: The transwell assay was performed according to manufacturer's protocol (Corning, N.Y.). Briefly, the cells were starved for 24 hours and then seeded on the transwell insert (Corning, N.Y.) in 12-well plates. The bottom of the well contained medium with 10% FBS. After 24 hours, the bottom of the inserts were fixed with 70% ethanol and stained with 0.5% crystal violet. The cells were counted triplicate under microscope.
# (§2) In the invasion assay, matrigel (0.8 mg/ml) layer was added on the transwell insert first. After the matrigel layer was solidified, the experiment was performed in the same way as the migration assay.
# lung cancer cell [2] = test: Cell proliferation with AKT inhibitors; format: cell-based; details: 24-hour treatment
# Text: (§3) AKT is a downstream effector of the RICTOR-mTOCR2 pathway, to determine its role in RICTOR-mediated metastasis, the effects of two structurally different AKT inhibitors, AR-42 and ipatasertib were inestigated.
# lung cancer cell [3] = test: Invasion and migration with AKT inhibitors; format: cell-based; details: for invasion and migration: AKT inhibitor added to inducible RICTOR knockdown; for lung cancer cell invasion and migration: AKT inhibitor alone, FIG. 10A-E
# Experimental: as §1, §2, §3
# lung cancer cell [4] = test: Apoptosis (cleaved PARP) with AKT inhibitors; format: cell-based; details: for apoptosis: AKT inhibitor added to inducible RICTOR knockdown; for apoptosis (cleaved PARP): AKT inhibitor alone
# Experimental: (§4) Immunoblotting and Antibodies: All antibodies were purchased from Cell Signaling Technology (Boston, Mass.). Cell lysate was harvested using RIPA buffer and the supernatant was subjected for following steps after centrifugation. Proteins were subjected to 10% SDS-PAGE gel and transferred onto […] nitrocellulose membrane (Biorad, Calif., USA) for western blot analysis. After incubation with primary antibody overnight at 4° C., the membrane was washed and incubated with secondary antibodies. The final blots were developed with a chemiluminesence system (Promega, Wis., USA).
# as §3
# [5] = test system: RICTOR-amplified H1703 lung cancer cells; test: Transwell cell migration and invasion assay in H1703 cells; format: cell-based; details: in vitro; FIG. 7C
# Experimental: as §1, §2
# [6] = test system: RICTOR-amplified H23 lung cancer cells; test: Transwell cell migration and invasion assay in H23 cells; format: cell-based; details: in vitro; FIG. 7C
# Experimental: as §1, §2
# [7] = test system: H23 lung cancer cells labeled with luciferase reporter gene; test: In vivo metastasis assay, stereotactic brain injection model; parameters: species or system mouse
# Text: To further test whether RICTOR amplification affects in vivo metastasis, either the inducible H23-R4 or the parental H23 lung cancer cells labeled with luciferase reporter gene (H23-R4-Luc) were implanted in mouse brain stereotactically.
# HCC827 OE cells [8] = test: Transwell cell migration and invasion assay in HCC827 OE cells; format: cell-based; details: migration and invasion promoted by RICTOR upregulation (doxycycline)
# Experimental: as §1, §2
# PC9 parental cells = test: Cell growth assay, combined treatment of sapanisertib and EGFR TKIs; details: sapanisertib 5 nM combined with erlotinib, afatinib or osimertinib; FIG. 3C
# Experimental: Clonogenic Survival Assay: Logarithmically growing cells were plated in triplicate. All drugs were added for 72 hours and withdrawn afterwards. After 10-14 days, colonies were fixed with 70% EtOH and stained with 0.5% crystal violet (Sigma Aldrich, St Louis, Mo.). Surviving colonies were defined as colonies containing >50 cells.
# PC9-R4 = test: Drug response by clonogenic survival assay in inducible RICTOR knockdown PC9-R4 cells; format: cell-based; details: for inhibitory effects on cell proliferation: RICTOR knockdown cells vs no knockdown
# ER cells = test: ER mouse tumor xenograft model; format: in vivo, mice
# Experimental: Xenograft Mouse Studies: Athymic mice (Envigo Laboratory, male, 6-8 weeks old) were inoculated subcutaneously with 5×10^6 NSCLC cells. After 2 days, mice were divided into a vehicle control (water) group and a doxycycline group, with 6 mice in each group. Doxycycline was administered by oral gavage: 100 mg/kg/day. The same volume of water was given to the control group. A total of 20 daily doses were administered in 4 weeks. […] Tumors were measured with calipers twice weekly and the size was calculated as length×width^2/2. The protocol was approved by the Institutional Animal Care and Use Committee.
# The in vivo mouse tumor xenograft model was performed using ER cells.
# HCC827 OE cells [9] = test: Western blot analysis (c-PARP) of osimertinib-treated HCC827 OE cells; format: cell-based; details: osimertinib-treated cells with RICTOR upregulation; osimertinib 50 nM; FIG. 4D
# Experimental: Immunoblotting and Antibodies: All antibodies were purchased from Cell Signaling Technology (Boston, Mass.). Cell lysate was harvested using RIPA buffer and the supernatant was subjected for following steps after centrifugation. Proteins were subjected to 10% SDS-PAGE gel and transferred onto 0.45 μM nitrocellulose membrane (Biorad, Calif., USA) for western blot analysis. After incubation with primary antibody overnight at 4° C., the membrane was washed and incubated with secondary antibodies. The final blots were developed with a chemiluminesence system (Promega, Wis., USA).
# HCC827 OE = details: RICTOR upregulation with doxycycline; FIG. 2C
# Experimental: Next, it was determined whether RICTOR upregulation could result in EGFR TKI resistance. A doxycycline-inducible RICTOR upregulation model in HCC827 cells (HCC827 OE) was generated.
# ER3-R4 = test: Western blot analysis (c-PARP) of osimertinib-treated ER3-R4 cells; format: cell-based; details: osimertinib-treated cells with RICTOR knockdown; osimertinib 0.5 μM; FIG. 4D
# Experimental: as §4
# To evaluate whether RICTOR-induced Axl upregulation was a common resistant mechanism for EGFR TKIs, Axl signaling in osimertinib-treated ER3-R4 and HCC827 OE cells was examined. […] Taken together, RICTOR positively regulates EGFR TKI resistance by upregulating Axl expression, which seems to be a common resistance mechanism shared by EGFR TKIs.
# [10] = test system: erlotinib-resistant HCC827 cell line (ER); test: MTS cell viability and clonogenic survival assays in erlotinib-resistant HCC827 cells (ER); format: cell-based; details: Axl-overexpressed ER; FIG. 1I and 1J
# Experimental: Cell Growth and Viability Assay: The MTS proliferation assay was performed as described in manufacture protocol (Promega, Wis., USA). Cells were seeded at a density of 2000 cells per well in 96-well plates. After incubating with drugs for 72 hours, MTS reagent was added and the absorbance was measured at 490 nm. Viable cell numbers were determined using the MTS assay kit according to the manufacturer's protocol.
molecule,measurement,setting,value
c1cc(CN2CCCNCCNCCCNCC2)ccc1CN1CCCNCCNCCCNCC1 [AMD3100],SDF-1α-induced invasion and migration,lung cancer cell [1]; FIG. 11B and C,significantly reduced
CC(C)[C@H](C(=O)Nc1ccc(C(=O)NO)cc1)c1ccccc1 [AR-42],change in cell proliferation,lung cancer cell [2],did not result in significant change
same,invasion and migration,lung cancer cell [3],significantly further reduced
same,lung cancer cell invasion and migration,lung cancer cell [3],significantly decreased
same,apoptosis,lung cancer cell [4],more pronounced apoptosis
same,apoptosis (cleaved PARP),lung cancer cell [4],increased apoptosis
"CNC(=O)c1cccc(-c2ccc3c(N4CCOC[C@@H]4C)nc(N4CCOC[C@@H]4C)nc3n2)c1 [AZD2014, 3-[2,4-bis[(3S)-3-methylmorpholin-4-yl]pyrido[2,3-d]pyrimidin-7-yl]-N-methylbenzamide]",migration and invasion,[5],significantly reduced
same,migration and invasion,[6],significantly reduced
"Nc1cc(C(F)(F)F)c(-c2nc(N3CCOCC3)nc(N3CCOCC3)n2)cn1 [PQR309, 5-(4,6-dimorpholin-4-yl-1,3,5-triazin-2-yl)-4-(trifluoromethyl)pyridin-2-amine]",migration and invasion,[5],significantly reduced
same,migration and invasion,[6],significantly reduced
"CC(C)n1nc(-c2ccc3oc(N)nc3c2)c2c(N)ncnc21 [TAK228, 5-(4-amino-1-propan-2-yl-3-pyrazolo[3,4-d]pyrimidinyl)-1,3-benzoxazol-2-amine]",migration and invasion,[5],significantly reduced
same,migration and invasion,[6],significantly reduced
same,reduction of tumor growth in the brain,"[7]; P<0.01, FIG. 8B",approximately 75%
same,near complete responses,"[7]; after 4 weeks of daily oral lavage, 3 out 7",43%
same,tumor growth in the brain,[7]; result in words,remarkably reduced the lung cancer growth in the brain; also recorded: significantly reduced tumor growth in the brain
same,cell migration and invasion,HCC827 OE cells [8],inhibited
same,sensitivity of EGFR TKIs in combined treatment,PC9 parental cells,significantly improved the sensitivity of all three inhibitors
CN(C)C/C=C/C(=O)Nc1cc2c(Nc3ccc(F)c(Cl)c3)ncnc2cc1O[C@H]1CCOC1 [afatinib],decrease of IC50 upon RICTOR knockdown,"PC9-R4; PC-9 cells, FIG. 3B",> 10 fold
C#Cc1cccc(Nc2ncnc3cc(OCCOC)c(OCCOC)cc23)c1 [erlotinib],expression of Axl in xenograft tumors,"ER cells; combination treatment (RICTOR knockdown and erlotinib), western blot of tumor lysate, FIG. 1H",lowest expression of Axl
same,tumor growth,"ER cells; combined treatment (RICTOR knockdown by doxycycline and erlotinib), vs either approach alone, P<0.05",markedly blocked tumor growth
same,tumor growth,"ER cells; erlotinib alone, four weeks of treatment, oral gavage daily",failed to inhibit tumor growth
same,inhibitory effects on cell proliferation,PC9-R4,higher inhibitory effects
CC(C)NC[C@@H](C(=O)N1CCN(c2ncnc3c2[C@H](C)C[C@H]3O)CC1)c1ccc(Cl)cc1 [ipatasertib],change in cell proliferation,lung cancer cell [2],did not result in significant change
same,invasion and migration,lung cancer cell [3],significantly further reduced
same,lung cancer cell invasion and migration,lung cancer cell [3],significantly decreased
same,apoptosis,lung cancer cell [4],more pronounced apoptosis
same,apoptosis (cleaved PARP),lung cancer cell [4],increased apoptosis
C=CC(=O)Nc1cc(Nc2nccc(-c3cn(C)c4ccccc34)n2)c(OC)cc1N(C)CCN(C)C [osimertinib],apoptosis,HCC827 OE cells [9],less apoptosis
same,decrease of IC50 upon RICTOR knockdown,HCC827-R4,> 10 fold
same,inhibitory effects on cell proliferation,HCC827-R4,higher inhibitory effects
same,resistance compared to parental HCC827 cells,HCC827 OE,more resistant
same,apoptosis (c-PARP),ER3-R4,more pronounced apoptosis
same,inhibitory effects on cell proliferation,PC9-R4,higher inhibitory effects
same,drug response of ER,[10],resistance to both inhibitors
SDF-1α,migration and invasion,lung cancer cell [1]; activation of the CXCR4 pathway by treatment with SDF-1α,increased migration and invasion
